In patent US20150141381A1, “TETRACYCLINE COMPOUNDS HAVING TARGET THERAPEUTIC ACTIVITIES” (Paratek Pharmaceuticals, Inc., priority 2001, published 2015) one finds MIC data, which are given here for 17 compounds.

In one experiment the test system is S. aureus RN450. Description: In Vitro Anti-Bacterial Activity Assay (MIC), gram positive. The class given is cell-based. The note with it: Staphylococcus aureus, RN450, 18 h.
The next experiment has as its system E. coli mL308 225. Nature of the experiment: In Vitro Anti-Bacterial Activity Assay (MIC), gram negative. The class given is cell-based. The note with it: Escherichia coli, ML308225, 18 h.
The mark [1] stands for this setting: gram positive bacteria, read-out: Antibiotic Activity Gram + (MIC).
The mark [2] stands for this setting: gram negative bacteria, read-out: Antibiotic Activity Gram − (MIC).
Setting [3] is: MIC class, Table 3, read-out: Antibiotic Activity Gram +.
Where [4] appears, read: MIC class, Table 3, read-out: Antibiotic Activity Gram −.
Where [5] appears, read: MIC class, Table 3 (Continued), read-out: Gram+ activity.
The mark [6] stands for this setting: MIC class, Table 3 (Continued), read-out: Gram− activity.

Structures are written as SMILES. Read-outs that look alike come from different tables or passages of the source.

As for `CN(C)[C@@H]1C(O)=C(C(N)=O)C(=O)[C@@]2(O)C(O)=C3C(=O)c4c(O)ccc(-c5ccc(F)c(C=O)c5)c4C[C@H]3C[C@@H]12`, the MIC in the experiment on S. aureus RN450 (setting [1]) and in the experiment on E. coli mL308 225 (setting [2]) was less than 4 µg/mL in each case.

Turning to `CN(C)[C@@H]1C(O)=C(C(N)=O)C(=O)[C@@]2(O)C(O)=C3C(=O)c4c(O)ccc(-c5ccc(CO)cc5)c4C[C@H]3C[C@@H]12`, the MIC with S. aureus RN450 (setting [1]) and in the experiment with E. coli mL308 225 (setting [2]) was less than 4 µg/mL throughout.

For the compound `CN(C)Cc1ccc(-c2ccc(O)c3c2C[C@H]2C[C@H]4[C@H](N(C)C)C(O)=C(C(N)=O)C(=O)[C@@]4(O)C(O)=C2C3=O)o1` [HL], the MIC with S. aureus RN450 (setting [3]) and with E. coli mL308 225 (setting [4]) was less than 4 µg/mL each time.

With `CN(C)c1cc(CNC(=O)c2ccno2)c(O)c2c1C[C@H]1C[C@H]3C(N(C)C)C(O)=C(C(N)=O)C(=O)[C@@]3(O)C(O)=C1C2=O` (stereo partly shown) [MB], the MIC was less than 4 µg/mL with S. aureus RN450 (setting [3]) and more than 4 µg/mL in the experiment with E. coli mL308 225 (setting [4]).

Consider `CN(C)CCCc1ccc(O)c2c1C[C@H]1C[C@H]3[C@H](N(C)C)C(O)=C(C(N)=O)C(=O)[C@@]3(O)C(O)=C1C2=O` [BQ], for which the MIC is less than 4 µg/mL with S. aureus RN450 (setting [3]) and more than 4 µg/mL in the experiment with E. coli mL308 225 (setting [4]).

Turning to `CC(=O)c1ccc(NC(=O)NCc2cc(N(C)C)c3c(c2O)C(=O)C2=C(O)[C@]4(O)C(=O)C(C(N)=O)=C(O)[C@@H](N(C)C)[C@@H]4C[C@@H]2C3)cc1` [FL], the MIC is less than 4 µg/mL in the experiment with S. aureus RN450 (setting [3]) and more than 4 µg/mL in the experiment with E. coli mL308 225 (setting [4]).

Consider `CCCCOc1cccc2c1C(=O)C1=C(O)[C@]3(O)C(=O)C(C(N)=O)=C(O)[C@@H](N(C)C)[C@@H]3C[C@@H]1C2`, for which the MIC in the experiment with S. aureus RN450 (setting [1]) and in the experiment on E. coli mL308 225 (setting [2]) was more than 4 µg/mL each time.

Consider `CN(C)c1ccc(-c2cc(CN)c(O)c3c2C[C@H]2C[C@H]4[C@@H](N(C)C)C(O)=C(C(N)=O)C(=O)[C@@]4(O)C(O)=C2C3=O)cc1` [HQ], for which the MIC was less than 4 µg/mL in the experiment with S. aureus RN450 (setting [3]) and more than 4 µg/mL with E. coli mL308 225 (setting [4]).

As for `CCCOc1cccc2c1C(=O)C1=C(O)[C@]3(O)C(=O)C(C(N)=O)=C(O)[C@@H](N(C)C)[C@@H]3C[C@@H]1C2` [drawing 3578], the MIC in the experiment on S. aureus RN450 (setting [1]) and with E. coli mL308 225 (setting [2]) was more than 4 µg/mL in each case.

For the compound `CC(=O)c1cc(I)c(O)c2c1C[C@H]1C[C@H]3[C@H](N(C)C)C(O)=C(C(N)=O)C(=O)[C@@]3(O)C(O)=C1C2=O` [JW], the MIC in the experiment on S. aureus RN450 (setting [3]) and in the experiment on E. coli mL308 225 (setting [4]) was more than 4 µg/mL in each case.

Turning to `Cc1c2c(c(O)c3c(O)cccc13)C(=O)[C@]1(O)C(=O)C(C(N)=O)=C(O)[C@@H](N(C)C)[C@@H]1C2`, the MIC with S. aureus RN450 (setting [5]) and in the experiment with E. coli mL308 225 (setting [6]) was less than 4 µg/mL throughout.

Consider `CN(C)c1cc(CNC2CCCC2)c(O)c2c1C[C@H]1C[C@H]3[C@H](N(C)C)C(O)=C(C(N)=O)C(=O)[C@@]3(O)C(O)=C1C2=O`, for which the results for the MIC in the experiment on S. aureus RN450 (setting [1]) and with E. coli mL308 225 (setting [2]) were less than 4 µg/mL and more than 4 µg/mL, respectively.

As to `CCCCOC(=O)Nc1cc(N(C)C)c2c(c1O)C(=O)C1=C(O)[C@]3(O)C(=O)C(C(N)=O)=C(O)[C@@H](N(C)C)[C@@H]3C[C@@H]1C2`, the MIC in the experiment on S. aureus RN450 (setting [1]) and in the experiment with E. coli mL308 225 (setting [2]) was less than 4 µg/mL throughout.

Take `COC(=O)C(CO)NC(=O)c1cccc(-c2ccc(O)c3c2C[C@H]2C[C@H]4[C@H](N(C)C)C(O)=C(C(N)=O)C(=O)[C@@]4(O)C(O)=C2C3=O)c1` (stereo partly shown): the results for the MIC in the experiment on S. aureus RN450 (setting [1]) and with E. coli mL308 225 (setting [2]) were less than 4 µg/mL and more than 4 µg/mL, respectively.

With `CC(=O)Nc1ccc(-c2ccc(O)c3c2C[C@H]2C[C@H]4[C@H](N(C)C)C(O)=C(C(N)=O)C(=O)[C@@]4(O)C(O)=C2C3=O)cn1`, the figures for the MIC with S. aureus RN450 (setting [1]) and in the experiment on E. coli mL308 225 (setting [2]) were less than 4 µg/mL and more than 4 µg/mL, respectively.

In the case of `CN(C)c1cc(CNC(CF)CF)c(O)c2c1C[C@H]1C[C@H]3[C@H](N(C)C)C(O)=C(C(N)=O)C(=O)[C@@]3(O)C(O)=C1C2=O`, the MIC in the experiment on S. aureus RN450 (setting [1]) was less than 4 µg/mL; with E. coli mL308 225 (read-out: Antibiotic Activity Gram − (MIC)), more than 4 µg/mL.

As for `CN(C)c1cc(C#Cc2ccccc2)c(O)c2c1C[C@H]1C[C@H]3[C@H](N(C)C)C(O)=C(C(N)=O)C(=O)[C@@]3(O)C(O)=C1C2=O`, the MIC in the experiment with S. aureus RN450 (setting [5]) and with E. coli mL308 225 (setting [6]) was less than 4 µg/mL each time.
